For one series, the target named is T1, hTREK2 (Homo sapiens, UniProt P57789).
T1 construct: expressed in transfected cells; host or cells: tsA-201, transient, pcDNA3.1 vector
Nature of the series: Whole-cell patch clamp, transiently transfected tsA-201 cells, TREK2. The format is cell-based. The settings on record: 1 μM, n = 6. Here is the method: (§1) Recordings of hTREK1, hTREK1∆N, hTREK2, hTRAAK and […] currents from transiently transfected tsA‐201 cells were performed using methods as described in Veale and Mathie (2016). Briefly, the pcDNA3.1 vector was cloned with the gene of interest, and these vectors and a similar vector containing GFP were incorporated into the tsA201 cells (0.5 μg per well) using the calcium phosphate method. The cells were incubated for 6–12 h at 37°C in […] and 5% carbon dioxide. Cells were then washed using a PBS solution and used for experiments after 24 h.
(§2) Currents were recorded using whole‐cell patch‐clamp using an Axopatch 1D amplifier. Cells were placed in a recording chamber filled with an external medium composed of 145 mM, NaCl, 2.5 mM KCl, 3 mM MgCl2, 1 mM CaCl2 and 10 mM HEPES (pH to 7.4, using NaOH). The internal medium used in the glass pipette comprised 150 mM KCl, 3 mM MgCl2, 5 mM (or 0.1 mM) EGTA and 10 mM HEPES (pH to 7.4, using KOH). GI‐530159 was applied by bath perfusion. Currents were recorded and analysed using pCLAMP 10.2 software Microsoft Excel. The voltage protocol used for recording current through K2P channels was as previously described (Veale and Mathie, 2016). For analysis, we measured the current difference between the −80 and −40 mV steps.

In another series the target is T2, hTREK1∆N (Homo sapiens, UniProt O95069).
T2 construct: expressed in transfected cells; host or cells: tsA-201, transient, pcDNA3.1 vector
Nature of the series: Whole-cell patch clamp, transiently transfected tsA-201 cells, TREK1ΔN. The format is cell-based. The settings on record: 1 μM, n = 5. Here is the method: as §1, §2

Another series addresses TASK3 (K2P9.1) (Homo sapiens, UniProt Q9NPC2). The series can be described thus: Activated current, TASK3 channels. The settings on record: 1 μM; n = 5. It is filed as cell-based.
A further series deals with T3, K2P18.1 (TRESK) (Homo sapiens, UniProt Q7Z418).
T3 construct: expressed in transfected cells
T3 sequence (Q7Z418 whole entry, species assumed): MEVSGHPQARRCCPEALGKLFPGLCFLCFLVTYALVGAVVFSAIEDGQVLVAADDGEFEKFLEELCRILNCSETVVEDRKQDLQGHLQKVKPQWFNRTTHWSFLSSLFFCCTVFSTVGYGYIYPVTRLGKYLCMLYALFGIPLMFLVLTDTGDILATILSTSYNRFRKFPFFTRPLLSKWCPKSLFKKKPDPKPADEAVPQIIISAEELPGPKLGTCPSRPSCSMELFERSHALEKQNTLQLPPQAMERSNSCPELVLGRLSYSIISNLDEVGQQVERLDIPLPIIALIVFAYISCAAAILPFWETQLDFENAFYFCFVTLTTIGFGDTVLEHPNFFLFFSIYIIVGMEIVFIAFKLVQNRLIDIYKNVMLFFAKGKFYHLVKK
Nature of the series: Manual patch clamp in recombinant cell lines, TRESK. The format is cell-based. The settings on record: 10 μM; n = 4.

For another series, the target named is KCa1.1 (BK) (Homo sapiens, UniProt Q12791). The series can be described thus: Manual patch clamp in recombinant cell lines, BK. It is filed as cell-based. As to conditions: 10 μM; n = 4.
KCa1.1 (BK), sequence (Q12791 whole entry, species assumed): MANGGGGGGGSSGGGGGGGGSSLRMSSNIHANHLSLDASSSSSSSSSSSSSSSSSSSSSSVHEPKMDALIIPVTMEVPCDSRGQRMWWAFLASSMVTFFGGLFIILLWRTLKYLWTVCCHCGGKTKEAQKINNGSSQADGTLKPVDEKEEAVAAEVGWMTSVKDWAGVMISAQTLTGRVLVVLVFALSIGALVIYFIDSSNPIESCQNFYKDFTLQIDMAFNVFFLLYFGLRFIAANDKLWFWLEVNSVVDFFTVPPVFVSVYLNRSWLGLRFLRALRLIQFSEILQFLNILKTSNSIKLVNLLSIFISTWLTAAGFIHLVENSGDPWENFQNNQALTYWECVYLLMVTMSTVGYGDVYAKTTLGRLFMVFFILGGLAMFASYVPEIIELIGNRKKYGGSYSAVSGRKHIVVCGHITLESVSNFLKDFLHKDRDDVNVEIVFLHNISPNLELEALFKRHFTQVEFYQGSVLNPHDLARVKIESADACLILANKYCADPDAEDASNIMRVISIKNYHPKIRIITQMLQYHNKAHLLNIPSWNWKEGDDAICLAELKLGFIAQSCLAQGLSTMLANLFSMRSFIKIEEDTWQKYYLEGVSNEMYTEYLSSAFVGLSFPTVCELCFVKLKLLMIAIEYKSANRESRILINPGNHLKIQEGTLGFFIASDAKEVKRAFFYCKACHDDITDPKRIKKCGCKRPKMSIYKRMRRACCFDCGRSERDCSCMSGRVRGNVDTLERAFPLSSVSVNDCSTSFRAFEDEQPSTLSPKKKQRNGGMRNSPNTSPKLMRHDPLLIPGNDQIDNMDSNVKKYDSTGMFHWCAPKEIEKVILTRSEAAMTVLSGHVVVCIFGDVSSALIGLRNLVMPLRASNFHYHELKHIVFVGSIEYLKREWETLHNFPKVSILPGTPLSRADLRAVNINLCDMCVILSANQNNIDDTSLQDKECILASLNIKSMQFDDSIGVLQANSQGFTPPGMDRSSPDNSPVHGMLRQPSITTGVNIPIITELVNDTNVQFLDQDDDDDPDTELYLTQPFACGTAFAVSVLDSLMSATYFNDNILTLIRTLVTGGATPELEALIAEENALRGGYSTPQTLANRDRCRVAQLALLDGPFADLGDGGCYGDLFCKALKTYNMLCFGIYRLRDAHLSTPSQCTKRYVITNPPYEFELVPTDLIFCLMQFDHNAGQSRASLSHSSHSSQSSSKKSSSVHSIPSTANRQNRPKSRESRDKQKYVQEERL
The target in a further series is Kv7.1 (Homo sapiens, UniProt P51787). Nature of the series: Rb+ efflux assay, Kv7.1. It is filed as cell-based.
The target in a further series is Kv7.3 (Homo sapiens, UniProt O43525). The series can be described thus: Rb+ efflux assay, Kv7.3. The format is cell-based.
A further series deals with small rat DRG neurons. Nature of the series: Current-clamp recordings from small rat DRG neurones in short-term culture. It is filed as cell-based. The settings on record: 1 μM. The procedure:
(§3) Acutely dissociated rat DRG cells were obtained according to a previously described protocol (Passmore, 2005). All animal care and experimental procedures complied with guidelines and were approved by the Pfizer Neusentis Institutional Animal Use and Care Committee. Animal studies are reported in compliance with the ARRIVE guidelines (Kilkenny et al., 2010; McGrath and Lilley, 2015).Cells were plated on coated coverslips (poly‐D‐lysine/laminin, BD Biosciences, San Jose, CA, USA) prior to patching on the same day. Cells were perfused with an extracellular solution containing (in mM): 135 NaCl, 4.7 KCl, 1 CaCl2, 1 MgCl2, 10 HEPES and 10 glucose, pH 7.4, with NaOH (310 mOsmol·L^−1). Pipette solution contained (in mM): 130 KCl, 1 MgCl2, 5 MgATP, 10 HEPES and 5 EGTA, pH adjusted to 7.3 with KOH (290 mOsmol·L^−1). For whole‐cell recordings, currents were filtered at 2 kHz and sampled at 5 kHz. Series resistance was compensated for by up to 80%. For current‐clamp recordings, action potential firing and resting membrane potential (RMP) were recorded from small cells ([…]). GI‐530159 was dissolved in 0.3% DMSO as 10 mM stock and applied in the vicinity of cells using a gravity fed perfusion system (MSC‐200, Bio‐Logic SAS, Claix, France).

In series [1] the test system is Na current in DRG neurons. Nature of the series: Voltage-clamp recordings from DRG neurons, Na current. The format is cell-based, rat. The procedure:
as §3

Another series has as its target Kv11.1 (hERG) (Homo sapiens, UniProt Q12809). The settings on record: 10 μM.
For a further series, the target named is T4, hTREK1 (Homo sapiens, UniProt O95069).
T4 sequence (O95069 1-426): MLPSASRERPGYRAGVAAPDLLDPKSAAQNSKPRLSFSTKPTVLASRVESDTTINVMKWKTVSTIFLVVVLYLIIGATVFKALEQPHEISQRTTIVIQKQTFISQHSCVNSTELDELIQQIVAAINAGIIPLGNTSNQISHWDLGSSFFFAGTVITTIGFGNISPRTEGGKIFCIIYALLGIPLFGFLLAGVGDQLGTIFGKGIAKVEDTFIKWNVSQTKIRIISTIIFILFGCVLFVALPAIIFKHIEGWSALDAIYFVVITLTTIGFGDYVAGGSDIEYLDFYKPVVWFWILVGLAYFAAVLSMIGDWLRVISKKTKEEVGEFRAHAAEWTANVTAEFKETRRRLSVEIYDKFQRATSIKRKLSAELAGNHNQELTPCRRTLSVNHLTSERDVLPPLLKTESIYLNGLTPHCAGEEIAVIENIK
Nature of the series: Automated whole-cell patch clamp (Qpatch), CHO–TREK1 cells. The format is cell-based. Also on record: expressed in transfected cells. The settings on record: 1 μM; stably transfected CHO cells. The procedure:
Automated patch‐clamp studies were performed with the Qpatch Sophion Bioscience A/S (Ballerup, Denmark) automated patch‐clamp platform. Sixteen‐well Qplates were loaded with CHO cells stably expression human recombinant TREK1 (CHO–TREK1 cells) in external buffer containing (in mM) 148 NaCl, 5 KCl, 1 CaCl2, 1 MgCl2, 10 HEPES and 10 glucose. Internal recording solution was (in mM) 100 K gluconate, 40 KCl, 1 MgCl2, 10 BAPTA, 10 HEPES and 1 MgATP.
Supplementary Information
Supplementary Figure S1: Activation of hTREK1 current by GI-530159 in automated patch […]
Figure S1: Activation of hTREK1 current by GI-530159 in automated patch recordings.
A) Human TREK1 current elicited by pulse protocol shown recorded on Qpatch 16 automated patch clamp platform after administration of 0.1% DMSO vehicle, 1 µM GI-530159 or after washout with 0.1% DMSO. B) Time course of TREK1 current amplitude recorded at 0 mV on Qpatch platform before during and after washout of 1 µM GI-530159.
(1 picture or pasted object on this page, not shown here)

Setting [2] is: 15 pA depolarizing current injection, of the 14 cells tested.

Kv11.1 (hERG), sequence (Q12809 whole entry): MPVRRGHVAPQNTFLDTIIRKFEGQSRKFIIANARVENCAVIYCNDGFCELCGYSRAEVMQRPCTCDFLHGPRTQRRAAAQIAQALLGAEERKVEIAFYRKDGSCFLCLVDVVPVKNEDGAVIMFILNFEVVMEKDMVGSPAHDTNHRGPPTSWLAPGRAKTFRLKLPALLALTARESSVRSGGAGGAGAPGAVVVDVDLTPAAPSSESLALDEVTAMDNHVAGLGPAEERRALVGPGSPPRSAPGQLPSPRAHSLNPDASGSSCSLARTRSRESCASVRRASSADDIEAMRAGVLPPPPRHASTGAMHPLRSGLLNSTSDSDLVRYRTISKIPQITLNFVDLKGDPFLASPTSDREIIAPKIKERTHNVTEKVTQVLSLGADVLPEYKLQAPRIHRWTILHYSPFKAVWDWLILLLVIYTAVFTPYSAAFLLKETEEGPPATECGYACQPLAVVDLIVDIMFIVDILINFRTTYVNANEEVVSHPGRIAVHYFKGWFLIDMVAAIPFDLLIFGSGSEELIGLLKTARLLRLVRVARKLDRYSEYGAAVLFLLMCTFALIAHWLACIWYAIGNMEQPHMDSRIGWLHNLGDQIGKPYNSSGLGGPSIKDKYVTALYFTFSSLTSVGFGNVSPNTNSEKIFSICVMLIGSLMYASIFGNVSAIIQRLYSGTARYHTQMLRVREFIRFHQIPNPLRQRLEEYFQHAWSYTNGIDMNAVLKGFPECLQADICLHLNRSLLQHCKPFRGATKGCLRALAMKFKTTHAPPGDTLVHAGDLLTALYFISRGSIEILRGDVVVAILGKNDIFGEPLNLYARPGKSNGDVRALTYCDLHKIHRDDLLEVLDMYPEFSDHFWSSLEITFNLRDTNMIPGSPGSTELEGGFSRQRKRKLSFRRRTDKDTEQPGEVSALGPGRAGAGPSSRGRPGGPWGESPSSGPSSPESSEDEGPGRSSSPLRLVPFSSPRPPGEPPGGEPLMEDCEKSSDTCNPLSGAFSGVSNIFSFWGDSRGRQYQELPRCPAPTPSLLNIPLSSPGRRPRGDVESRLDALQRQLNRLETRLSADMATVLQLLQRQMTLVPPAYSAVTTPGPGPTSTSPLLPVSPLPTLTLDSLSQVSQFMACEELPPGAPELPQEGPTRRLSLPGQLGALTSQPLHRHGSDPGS
T1 sequence (P57789 whole entry): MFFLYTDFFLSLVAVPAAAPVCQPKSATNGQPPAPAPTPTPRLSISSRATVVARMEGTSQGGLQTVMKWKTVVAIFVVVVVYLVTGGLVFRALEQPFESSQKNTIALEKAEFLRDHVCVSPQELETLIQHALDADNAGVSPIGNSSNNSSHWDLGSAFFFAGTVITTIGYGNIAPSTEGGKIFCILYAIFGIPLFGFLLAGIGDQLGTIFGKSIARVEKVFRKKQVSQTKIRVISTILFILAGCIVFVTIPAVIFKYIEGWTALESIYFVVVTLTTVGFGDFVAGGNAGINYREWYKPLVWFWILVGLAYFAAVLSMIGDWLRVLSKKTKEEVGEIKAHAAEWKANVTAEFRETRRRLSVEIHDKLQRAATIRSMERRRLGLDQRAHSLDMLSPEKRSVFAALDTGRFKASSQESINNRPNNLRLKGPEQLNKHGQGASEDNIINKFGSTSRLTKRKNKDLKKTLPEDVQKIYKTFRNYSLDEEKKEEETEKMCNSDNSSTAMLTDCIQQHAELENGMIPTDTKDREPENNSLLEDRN
TASK3 (K2P9.1), sequence (Q9NPC2 whole entry, species assumed): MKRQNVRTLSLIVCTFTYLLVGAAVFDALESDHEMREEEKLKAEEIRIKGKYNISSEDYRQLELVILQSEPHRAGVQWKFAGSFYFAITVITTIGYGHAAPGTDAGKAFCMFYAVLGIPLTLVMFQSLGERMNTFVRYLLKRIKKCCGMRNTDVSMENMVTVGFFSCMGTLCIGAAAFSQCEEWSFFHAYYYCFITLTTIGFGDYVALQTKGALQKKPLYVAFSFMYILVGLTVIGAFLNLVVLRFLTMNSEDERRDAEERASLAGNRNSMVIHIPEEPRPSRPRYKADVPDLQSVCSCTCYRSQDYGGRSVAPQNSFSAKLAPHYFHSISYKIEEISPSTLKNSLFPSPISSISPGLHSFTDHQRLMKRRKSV

`Nc1ccc(Oc2ccc(C(c3ccc(Oc4ccc(N)cc4)cc3)(C(F)(F)F)C(F)(F)F)cc2)cc1` [GI‐530159, 4,4′‐(hexafluoroisopropylidene)bis(p‐phenyleneoxy)dianiline]: the “enhancement of TREK2 current” value at hTREK2 is 42 ± 6%. The “enhancement of TREK1ΔN current” value on hTREK1∆N worked out at 377 ± 57%. In addition, the “activated current, TASK3 channels” value at TASK3 (K2P9.1) worked out at 0.02 ± 0.005 nA. Besides, the “effect on K2P18.1 (TRESK) current” value at K2P18.1 (TRESK) was −2.0 ± 3.5%. Besides, at KCa1.1 (BK), the “effect on KCa1.1 (BK) current” value is listed as −3.3 ± 6.7%. The “activator effect on Kv7.1” value at Kv7.1 is given as “no activator effects”. In addition, the “activator effect on Kv7.3” value at Kv7.3 is reported as “no activator effects”. Further, in the series on small rat DRG neurons (14 cells tested), the “share of cells with firing frequency reduced or abolished” value stood at 57% and the “share of neurons with firing unaltered / unaffected” value is reported as 43%. In addition, in the series with small rat DRG neurons (setting [2]), the “cells with a reduction in firing frequency” value is recorded as “two”, the “cells with complete abolition in firing frequency” value is recorded as “six” and the “neurons with firing unaltered” value was “six”. For the same molecule, the “resting membrane potential after application, averaged per rat” value in the series with small rat DRG neurons (n = 7 rats, from −54.0 ± 2.0 mV, P < 0.05) is −57.8 ± 1.4 mV. In addition, in the series with small rat DRG neurons (n = 14 individual neurons, from −53.6 ± 1.5 mV, P < 0.05), the “resting membrane potential after application” value is given as −57.1 ± 1.5 mV. Moreover, the “block of Na current in DRG neurons” value in [1] is “not observed”. The “effect on Kv11.1 (hERG) current” value on Kv11.1 (hERG) is reported as −7.3 ± 5.1%. Also, the “effect on hTREK1 current, Qpatch” value on hTREK1 is listed as “effective at reversibly enhancing current”.

For the origin of these results see PMC5980259, “GI‐530159, a novel, selective, mechanosensitive two‐pore‐domain potassium (K2P) channel opener, reduces rat dorsal root ganglion neuron excitability” (British Journal of Pharmacology, 2017).
